Data as given in paper PMC11541474, “Toward New Therapeutics for Visceral Leishmaniasis: Efficacy and Mechanism of Action of Amides Inspired by Gibbilimbol B” (ACS Omega, 2024).

Columns and labels:
[1] = test system: L. (L.) infantum promastigotes; assay: in vitro activity against promastigote forms of L. (L.) infantum; assay type: cell-based, Leishmania (L.) infantum; conditions: for EC50: Leishmania infantum, L. (L.) infantum promastigotes, read-out: Ec50 Promastigote (μm) ± SD
Experimental: (§1) Evaluation of in vitro activity against promastigote and amastigote forms of L. (L.) infantum was performed as previously reported assays.[40]−[43] The CC50 and EC50 values were calculated using sigmoidal dose–response curves using Graph Pad Prism 5.0 software. One-way ANOVA testing with Tukey’s multiple comparison tests were used for evaluation of the statistical significance (p-value) of differences between the samples, which were tested in duplicate and all assays were repeated at least twice.

[2] = test system: L. (L.) infantum intracellular amastigotes; assay: ex-vivo assay using intracellular amastigotes of L. (L.) infantum; assay type: cell-based, Leishmania (L.) infantum; conditions: for EC50: Leishmania infantum, L. (L.) infantum intracellular amastigotes, read-out: Ec50 Amastigote (μm) ± SD; for S.I. amastigote (selectivity index): CC50 against NCTC cells/EC50 against amastigotes
Experimental: as §1

[3] = in vitro mammalian toxicity against NCTC cells; assay type: cell-based; conditions: 50% cytotoxic concentration, read-out: Cc50 Nctc (μm) ± SD
Experimental: as §1, with “mammalian toxicity” for “activity”, “NCTC cells” for “promastigote and amastigote forms of L. (L.) infantum”, “described.[40] The selectivity index was determined using the following equation: CC50 against NCTC cells/EC50 against amastigotes.[44]” for “reported assays.[40]−[43]”

[4] = test system: L. (L.) infantum promastigotes; assay type: cell-based, Leishmania (L.) infantum; conditions: 9 at 141.5 μM, 10 at 110.1 μM, after 240 min
Experimental: Figure 5 Evaluation of ROS in promastigotes of L. (L.) infantum treated with compounds 9 (141.5 μM) or 10 (110.1 μM). […]
Measurements of ROS were conducted as previously reported.[48] Briefly, promastigotes were treated with compounds 9 (141.5 μM) or 10 (110.1 μM) in HBSS+Glu at 24 °C using H2DCFDA (Molecular Probes). Fluorescence was measured using a fluorimetric microplate reader (FilterMax F5Multi-Mode, Molecular Devices) with excitation and emission filters at 485 and 520 nm, respectively.[48] Untreated and treated parasites (H2O2 - 40 μM) were used as negative and positive controls, respectively.

[5] = test system: L. (L.) infantum promastigotes; assay type: cell-based, Leishmania (L.) infantum
Excerpt: Changes in the plasma membrane integrity of Leishmania spp. can lead to cell death due to pore formation, pH imbalance, and nutrient-transport failure. Initially, the fluorescent probe Sytox Green was employed to analyze the permeability of the plasma membrane. […] Untreated parasites were used as a negative control for normalization (0% permeabilization) whereas the nonionic surfactant Triton X-100 was used for as positive control (100% permeabilization).
Figure 4 Plasma membrane permeability in L. (L.) infantum promastigotes after 4 h of treatment with compound (A) 9 (141.5 μM) or (B) 10 (110.1 μM), using the fluorescent probe Sytox Green (p < 0.0001). Negative control: untreated parasites; positive control: Triton X-100 (TX-100).
Assays for determination of plasma membrane integrity of L. (L.) infantum were conducted as previously reported.[46] Briefly, compounds 9 (141.5 μM) and 10 (110.1 μM) were added to different wells and the resulting fluorescence was measured using a fluorimetric microplate reader (FilterMax F5Multi-Mode, Molecular Devices). Triton X-100 (0.5%, v/v) and untreated parasites were used as positive negative controls, respectively.[47]

| Compound | EC50 [1] [µM] | EC50 [2] [µM] | CC50 [3] [µM] | activity against promastigotes (in words) [1] | ROS levels compared with negative control (H2DCFDA) [4] | S.I. amastigote (selectivity index) [2] | permeabilization of the plasma membrane (Sytox Green) [5] |
| --- | --- | --- | --- | --- | --- | --- | --- |
| CCC/C=C/CCCNC(=O)c1ccc(C)cc1 [Compound 2, (E)-4-Methyl-N-(oct-4-en-1-yl)benzamide] | 66.9 ± 6.4 | > 100 | > 200 | – | – | – | – |
| CCC/C=C/CCCNC(=O)c1ccc(F)cc1 [Compound 4, (E)-4-Fluoro-N-(oct-4-en-1-yl)benzamide] | 67.4 ± 1.3 | > 100 | > 200 | – | – | – | – |
| CCC/C=C/CCCNC(=O)c1ccccc1 [Compound 1, (E)-N-(Oct-4-en-1-yl)benzamide] | > 100 | > 100 | > 200 | inactive | – | – | – |
| [N-]=[N+]=[N-].[Na+] [Sodium azide, reference compound] | – | – | – | – | maximum production of ROS | – | – |
| CCCCC(CC)CNC(=O)c1ccc(C(C)(C)C)cc1 (centres unmarked) [Compound 12, N-(2-Ethylhexyl)-4-(tert-butyl)benzamide] | > 150 | 5.1 ± 1.9 | > 200 | inactive | – | >39.2 | – |
| CCC/C=C/CCCNC(=O)c1ccc(OC)cc1 [Compound 3, (E)-4-Methoxy-N-(oct-4-en-1-yl)benzamide] | > 150 | > 100 | > 200 | inactive | – | – | – |
| CCCCC(CC)CNC(=O)c1ccc(C)cc1 (centres unmarked) [Compound 11, N-(2-Ethylhexyl)-4-methylbenzamide] | 66.3 ± 6 | > 100 | > 200 | – | – | – | – |
| CCC/C=C/CCCNC(=O)c1ccc(Cl)cc1 [Compound 5, (E)-4-Chloro-N-(oct-4-en-1-yl)benzamides] | 73.3 ± 4.3 | > 100 | > 200 | – | – | – | – |
| CCC/C=C/CCCNC(=O)c1ccc(C(C)(C)C)cc1 [Compound 6, (E)-4-(tert-butyl)-N-(oct-4-en-1-yl)benzamide] | 66 ± 1 | > 100 | > 200 | – | – | – | – |
| CCCCCC/C=C/CCc1ccc(O)cc1 [Gibbilimbol B, gibbilimbol B] | 99.4 ± 2.1 | 95.1 ± 1.5 | > 200 | – | – | >2.1 | – |
| CCCCC(CC)CNC(=O)c1ccc(F)cc1 (centres unmarked) [Compound 8, N-(2-Ethylhexyl)-4-fluorobenzamide] | 64.1 ± 3.5 | > 100 | 156.8 ± 1 | – | – | – | – |
| CCC/C=C/CCCNC(=O)c1ccc([N+](=O)[O-])cc1 [Compound 7, (E)-4-Nitro-N-(oct-4-en-1-yl)benzamide] | 49.8 ± 4 | > 100 | 158 ± 37.3 | – | – | – | – |
| Triton X-100 [reference compound] | – | – | – | – | – | – | maximum permeabilization |
| CCCCCCCCCCCCCCCCOP(=O)([O-])OCC[N+](C)(C)C [Miltefosine, miltefosine, reference compound] | 5.1 ± 0.6 | 6.5 ± 3 | 120 ± 4.2 | – | – | 18.4 | – |
